In BindingDB's records for doi:10.1124/mol.52.3.337 (The Schering Plough Research Institute, 1997) one finds Ki data, which are given here for three molecules.

Non-standard residues stand in square brackets, D forms with d. Residues, ends and D or L forms follow the SMILES beside them.

The target of this assay is T1, Galanin receptor type 2 (Rattus norvegicus, UniProt O08726).
T1 sequence (O08726 whole entry): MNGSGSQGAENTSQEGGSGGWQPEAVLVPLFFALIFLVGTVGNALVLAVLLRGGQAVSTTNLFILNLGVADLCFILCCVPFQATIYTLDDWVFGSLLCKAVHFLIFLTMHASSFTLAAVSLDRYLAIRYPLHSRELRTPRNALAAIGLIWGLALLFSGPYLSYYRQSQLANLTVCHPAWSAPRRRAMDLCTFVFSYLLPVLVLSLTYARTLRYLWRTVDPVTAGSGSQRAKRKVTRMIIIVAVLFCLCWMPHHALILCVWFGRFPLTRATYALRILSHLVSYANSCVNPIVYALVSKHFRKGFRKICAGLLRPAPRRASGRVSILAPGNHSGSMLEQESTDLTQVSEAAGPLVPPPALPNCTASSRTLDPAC
“H-ELEPEDEARPGGFDRLQSQDKAIRTIMEFLAFLHLKEAGAL-NH2 [GMAP (1-41)]” returned a Ki of 0.84 µM.

`CC(C)C[C@H](NC(=O)[C@H](CC(C)C)NC(=O)[C@@H](Cc1c[nH]c2ccccc12)NC(=O)[C@H](Cc1ccccc1)NC(=O)[C@@H](Cc1c[nH]c2ccccc12)NC(=O)[C@H](CCC(N)=O)NC(=O)[C@H](CCC(N)=O)NC(=O)[C@@H]1CCCN1C(=O)[C@H](CCCCN)NC(=O)[C@@H]1CCCN1C(=O)[C@@H](CCCNC(=N)N)NC(=O)[C@@H]1CCCN1C(=O)CNC(=O)[C@H](CC(C)C)NC(=O)[C@H](CC(C)C)NC(=O)[C@H](Cc1ccc(O)cc1)NC(=O)CNC(=O)[C@H](C)NC(=O)[C@H](CO)NC(=O)[C@H](CC(N)=O)NC(=O)[C@H](CC(C)C)NC(=O)[C@@H](NC(=O)[C@H](Cc1c[nH]c2ccccc12)NC(=O)CN)[C@@H](C)O)C(N)=O` [Gal(1-13)-Std I] (H-GWTLNSAGYLLGP[dR]PKPQQ[dW]F[dW]LL-NH2) came in with a Ki of 0.0091 µM. To H-GWTLNSAGYLLGPPPALALA-NH2 [M40] belongs 0.018 µM.

The Ki is a dissociation constant, usually derived from enzyme kinetics or from competition with a known ligand. A higher Ki goes with a looser hold on the target.
